Here are results for 9 molecules from patent US5340807A, “Tricyclic compounds and intermediates thereof” (priority 1991, dated 1994).

Data set [1] concerns acyl coenzyme A: cholesterol acyltransferase (ACAT). As to the kind of experiment: Test for ACAT inhibitory activity (microsome fraction prepared from rabbit liver). It counts as biochemical. The conditions noted are these: 10^-6 M, 37° C., 10 minutes. On the procedure:
Test for ACAT inhibitory activity The test for ACAT inhibitory activity was performed by a modified method of the method of Brecher et al. Biochim. Biophys. […] The radioactivity of the cholesterol ester spot was determined by a liquid scintillation counter. The radio-activity for each test compound was calculated by the difference between the radioactivity with the microsome fraction and the radioactivity without the microsome fraction. The radioactivity of control was determined in a similar manner without any test compound.

A further data set deals with male ddy strain mice. As to the kind of experiment: Test for acute toxicity (minimum lethal dose, oral). It counts as in vivo. The conditions noted are these: mortality observed seven days after administration. As to the method: Groups of 3 male ddy strain mice weighing 20±1 g were used. The test compounds were orally administered. Seven days after administration, the mortality was observed and the minimum lethal dose (MLD) was determined.

The next data set deals with serum cholesterol level. Put plainly: Inhibition effect on serum cholesterol level in hamster with dietary hyperlipemia. It counts as in vivo. The conditions noted are these: Golden hamster, 2% cholesterol feed for 3 days; 30 mg/kg orally once a day. On the procedure:
Inhibition effect on serum cholesterol level in hamster with dietary hyperlipemia
Golden hamster (SLC, male, age of 6 weeks) was made free access to feed containing 2% cholesterol for 3 days. Each test compound was suspended in olive oil and orally administered once a day in a dose of 30 mg/kg during the feeding. (A: Test Group administered with the test compound, B: Control Group administered with olive oil only). In Group C, feed free from cholesterol was fed for 3 days. On the fourth day, blood sample was collected from the descending aorta under pentobarbital anesthesia and cholesterol level in serum was determined. The total cholesterol level in serum of each group was determined and the inhibition rate for the test compound was calculated according to the following equation. [formula]

Structures are written as SMILES.

Regarding `Cc1ccc2c(c1)C(C(=O)Nc1c(C(C)C)cccc1C(C)C)c1ccccc1CO2` (stereo not drawn) [Compound 4, 6,11-Dihydro-N-(2,6-diisopropylphenyl)-2-methyldibenz[b,e]-oxepin-11-carboxamide], the “Inhibiting rate(%) of ACAT” value in data set [1] worked out at 98%. Also, the “Acute Toxicity (MLD), minimum lethal dose” value (“Acute Toxicity (MLD)” below) in the data set with male ddy strain mice is above 300 mg/kg. In addition, in the data set on serum cholesterol level, the “Inhibition Rate (%) of total cholesterol level in serum” value (from here on “Inhibition Rate (%)”) was determined as 70%.
On to `CC(C)c1cccc(C(C)C)c1NC(=O)C1c2ccccc2COc2ccc(Br)cc21` (stereo not drawn) [Compound 18, 2-Bromo-6,11-dihydro-N-(2,6-diisopropylphenyl)dibenz[b,e]-oxepin-11-carboxamide], for which the “Inhibiting rate(%) of ACAT” value in data set [1] came out at 100%. Also, the “Acute Toxicity (MLD)” value in the data set with male ddy strain mice is on record as above 300 mg/kg. For the same molecule, in the data set on serum cholesterol level, the “Inhibition Rate (%)” value amounted to 114%.
In the case of `CC(C)c1cccc(C(C)C)c1NC(=O)C1c2ccccc2COc2ccc(C(F)(F)F)cc21` (stereo not drawn) [Compound 20, 6,11-Dihydro-N-(2,6-diisopropylphenyl) -2-trifluoromethyldibenz[b,e]oxepin-11-carboxamide], in data set [1], the “Inhibiting rate(%) of ACAT” value was 84%. Also, the “Acute Toxicity (MLD)” value in the data set with male ddy strain mice was above 300 mg/kg. Moreover, the “Inhibition Rate (%)” value in the data set on serum cholesterol level came to 63%.
For the molecule `Cc1cc(Br)c2c(c1)C(C(=O)Nc1c(C(C)C)cccc1C(C)C)c1ccccc1CO2` (stereo not drawn) [Compound 21, 4-Bromo-6,11-dihydro-N-(2,6-diisopropylphenyl) -2-methyldibenz[b,e]oxepin-11-carboxamide], the “Inhibition Rate (%)” value in the data set on serum cholesterol level came to 67%.
With `COC(=O)c1ccc2c(c1)C(C(=O)Nc1c(C(C)C)cccc1C(C)C)c1ccccc1CO2` (stereo not drawn) [Compound 24, 6,11-Dihydro-N-(2,6-diisopropylphenyl)-2-methoxycarbonyl-dibenz[b,e]oxepin-11-carboxamide], the “Inhibiting rate(%) of ACAT” value in data set [1] came to 90%. Also, the “Acute Toxicity (MLD)” value in the data set on male ddy strain mice is above 300 mg/kg.
The corresponding values for `CCc1cccc(CC)c1NC(=O)C1c2ccccc2COc2ccc(Br)cc21` (stereo not drawn) [Compound 27, 2-Bromo-N-(2,6-diethylphenyl)-6,11-dihydrodibenz[b,e]oxepin-11-carboxamide] are 80% and above 300 mg/kg.
The corresponding values for `O=C(Nc1c(Cl)cccc1Cl)C1c2ccccc2COc2cc(Br)ccc21` (stereo not drawn) [Compound 28, 3-Bromo-N-(2,6-dichlorophenyl)-6,11-dihydrodibenz[b,e]oxepin-11-carboxamide] are 52% and above 300 mg/kg.
The corresponding values for `CC(C)c1cccc(C(C)C)c1NC(=O)C1c2ccccc2COc2cc(Br)ccc21` (stereo not drawn) [Compound 29, 3-Bromo-6,11-dihydro-N-(2,6-diisopropylphenyl)dibenz[b,e]-oxepin-11-carboxamide] are 86% and above 300 mg/kg.
For the molecule `CC(C)c1cccc(C(C)C)c1NC(=O)C1c2ccccc2CSc2ccc(Br)cc21` (stereo not drawn) [Compound 32, 2-Bromo-6,11-dihydro-N-(2,6-diisopropylphenyl)dibenzo[b,e]-thiepin-11-carboxamide], the “Inhibiting rate(%) of ACAT” value in data set [1] is recorded as 88%. In addition, the “Acute Toxicity (MLD)” value in the data set on male ddy strain mice was above 300 mg/kg. Moreover, the “Inhibition Rate (%)” value in the data set with serum cholesterol level was 67%.
